Experiments:
Androgen receptor [1] = target: T1, Androgen receptor (Rattus norvegicus, UniProt P15207)
T1 sequence (P15207 whole entry): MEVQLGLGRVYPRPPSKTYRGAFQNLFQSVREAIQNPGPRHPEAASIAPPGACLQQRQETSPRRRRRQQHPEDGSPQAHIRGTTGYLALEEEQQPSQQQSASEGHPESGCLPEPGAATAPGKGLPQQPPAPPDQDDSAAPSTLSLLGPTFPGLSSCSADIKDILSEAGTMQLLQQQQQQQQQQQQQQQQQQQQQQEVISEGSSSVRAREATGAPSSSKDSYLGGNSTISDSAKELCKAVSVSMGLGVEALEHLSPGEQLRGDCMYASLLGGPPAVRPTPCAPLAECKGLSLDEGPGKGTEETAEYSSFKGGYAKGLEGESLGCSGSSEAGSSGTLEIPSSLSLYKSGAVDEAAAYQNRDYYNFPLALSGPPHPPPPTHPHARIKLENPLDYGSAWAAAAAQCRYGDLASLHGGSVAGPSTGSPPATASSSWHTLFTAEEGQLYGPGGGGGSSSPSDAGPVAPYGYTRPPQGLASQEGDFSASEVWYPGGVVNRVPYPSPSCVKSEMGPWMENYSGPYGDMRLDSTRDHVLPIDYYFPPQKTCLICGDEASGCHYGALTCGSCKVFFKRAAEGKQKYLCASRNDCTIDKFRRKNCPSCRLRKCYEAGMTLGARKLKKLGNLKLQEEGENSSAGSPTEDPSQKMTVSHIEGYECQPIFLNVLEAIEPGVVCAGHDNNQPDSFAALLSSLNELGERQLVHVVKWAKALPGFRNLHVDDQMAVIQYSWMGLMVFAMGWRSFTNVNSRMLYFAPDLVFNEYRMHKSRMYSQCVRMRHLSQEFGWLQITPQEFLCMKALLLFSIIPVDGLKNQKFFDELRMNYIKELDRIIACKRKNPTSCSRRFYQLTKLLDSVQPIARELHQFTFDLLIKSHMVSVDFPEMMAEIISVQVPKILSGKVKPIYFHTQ

Endothelin-1 receptor = target: T2, Endothelin-1 receptor (Homo sapiens, UniProt P25101)
T2 sequence (P25101 whole entry): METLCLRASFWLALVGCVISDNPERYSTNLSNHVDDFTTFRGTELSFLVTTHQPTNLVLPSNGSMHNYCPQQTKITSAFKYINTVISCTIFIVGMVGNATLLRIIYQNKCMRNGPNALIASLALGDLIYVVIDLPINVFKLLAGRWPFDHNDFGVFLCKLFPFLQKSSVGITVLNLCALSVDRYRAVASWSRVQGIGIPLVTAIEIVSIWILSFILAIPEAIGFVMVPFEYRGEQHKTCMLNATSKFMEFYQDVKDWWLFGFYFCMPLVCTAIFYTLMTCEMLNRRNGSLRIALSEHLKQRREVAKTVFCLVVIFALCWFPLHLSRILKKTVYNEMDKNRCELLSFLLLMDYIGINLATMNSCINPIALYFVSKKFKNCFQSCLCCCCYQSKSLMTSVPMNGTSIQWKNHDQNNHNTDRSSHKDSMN

Progesterone receptor = target: T3, Progesterone receptor (Homo sapiens, UniProt P06401)
T3 sequence (P06401 whole entry): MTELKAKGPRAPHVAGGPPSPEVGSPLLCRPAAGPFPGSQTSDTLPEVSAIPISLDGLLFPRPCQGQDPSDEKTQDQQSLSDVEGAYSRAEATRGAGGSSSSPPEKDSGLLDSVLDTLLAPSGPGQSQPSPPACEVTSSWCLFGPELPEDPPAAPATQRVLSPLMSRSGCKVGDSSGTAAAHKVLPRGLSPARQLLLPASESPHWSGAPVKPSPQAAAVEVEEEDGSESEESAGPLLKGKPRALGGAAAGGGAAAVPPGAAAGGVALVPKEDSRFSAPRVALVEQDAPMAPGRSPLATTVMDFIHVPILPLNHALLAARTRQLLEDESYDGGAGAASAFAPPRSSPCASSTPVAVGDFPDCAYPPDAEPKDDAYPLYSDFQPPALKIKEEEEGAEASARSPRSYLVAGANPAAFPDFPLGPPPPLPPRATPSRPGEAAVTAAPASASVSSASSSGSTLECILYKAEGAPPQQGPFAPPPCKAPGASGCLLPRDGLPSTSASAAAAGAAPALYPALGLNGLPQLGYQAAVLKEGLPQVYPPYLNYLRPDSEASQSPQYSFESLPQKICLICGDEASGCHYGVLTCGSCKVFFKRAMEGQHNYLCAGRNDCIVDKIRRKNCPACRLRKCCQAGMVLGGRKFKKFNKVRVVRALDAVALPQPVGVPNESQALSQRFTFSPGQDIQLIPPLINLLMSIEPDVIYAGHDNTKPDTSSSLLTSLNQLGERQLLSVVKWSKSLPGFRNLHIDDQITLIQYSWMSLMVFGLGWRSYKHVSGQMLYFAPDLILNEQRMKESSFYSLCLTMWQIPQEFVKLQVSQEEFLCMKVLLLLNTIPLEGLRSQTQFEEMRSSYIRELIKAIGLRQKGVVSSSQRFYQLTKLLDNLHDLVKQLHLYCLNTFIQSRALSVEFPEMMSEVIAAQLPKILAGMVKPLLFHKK

[2] = target: T4, 5-hydroxytryptamine receptor 1A (Homo sapiens, UniProt P08908)
T4 sequence (P08908 whole entry): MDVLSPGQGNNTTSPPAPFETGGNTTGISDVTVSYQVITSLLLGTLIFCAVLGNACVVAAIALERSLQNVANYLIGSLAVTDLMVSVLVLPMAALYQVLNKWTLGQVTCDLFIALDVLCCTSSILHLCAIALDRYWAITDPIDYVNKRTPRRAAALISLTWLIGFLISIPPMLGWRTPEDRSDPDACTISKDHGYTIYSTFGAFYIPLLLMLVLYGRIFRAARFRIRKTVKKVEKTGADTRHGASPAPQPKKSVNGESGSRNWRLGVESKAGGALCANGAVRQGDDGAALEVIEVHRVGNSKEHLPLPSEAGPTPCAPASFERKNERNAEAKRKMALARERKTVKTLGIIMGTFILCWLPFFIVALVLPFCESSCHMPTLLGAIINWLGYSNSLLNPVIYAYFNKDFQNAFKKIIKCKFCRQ

Androgen receptor [3] = target: T1, Androgen receptor; type: functional
Androgen receptor [4] = target: T1, Androgen receptor; type: functional; remark: listed apart in the source
Also: assay procedure not described here.

Fc1ccc([C@@H]2CCNC[C@H]2COc2ccc3c(c2)OCO3)cc1 [PAROXETINE]
AC50 (Androgen receptor [1]): > 30 µM | AC50 (Endothelin-1 receptor): > 30 µM | AC50 (Progesterone receptor): > 30 µM | AC50 [2]: > 10 µM

CCOC(=O)c1ncn2c1CN(C)C(=O)c1cc(F)ccc1-2 [FLUMAZENIL]
AC50 (Androgen receptor [3]): > 30 µM | AC50 (Androgen receptor [4]): > 30 µM | AC50 (Androgen receptor [1]): > 10 µM

Cc1cc(=O)n(-c2ccccc2)n1C [ANTIPYRINE]
AC50 (Androgen receptor [1]): > 30 µM | AC50 (Progesterone receptor): > 30 µM | AC50 [2]: > 10 µM

COc1cc(C)c(/C=C/C(C)=C/C=C/C(C)=C/C(=O)O)c(C)c1C [ACITRETIN]
AC50 (Androgen receptor [1]): 4.6 µM

CCC1(CCC(C)C)C(=O)NC(=O)NC1=O [AMOBARBITAL]
AC50 (Androgen receptor [1]): > 10 µM

CC(=O)[C@H]1CC[C@H]2[C@@H]3C[C@H](C)C4=CC(=O)CC[C@]4(C)[C@H]3[C@@H](O)C[C@]12C [MEDRYSONE]
AC50 (Androgen receptor [1]): 0.257 µM

O=C1Nc2ccc(Cl)cc2C(c2ccccc2Cl)=NC1O (configuration not stated) [LORAZEPAM]
AC50 (Androgen receptor [1]): > 30 µM | AC50 (Endothelin-1 receptor): > 30 µM | AC50 (Progesterone receptor): 26.2 µM | AC50 [2]: > 10 µM

— ChEMBL document CHEMBL5291721, “A preclinical secondary pharmacology resource illuminates target-adverse drug reaction associations of marketed drugs” (Nat Commun, 2023)
